According to ChEMBL document CHEMBL1131422, “N-(2-Benzoylphenyl)-L-tyrosine PPARgamma agonists. 1. Discovery of a novel series of potent antihyperglycemic and antihyperlipidemic agents” (J Med Chem, 1998):
The source made the active and inactive calls. The rule behind the calls is not given here.

Columns and labels:
[1] = target: T1, Peroxisome proliferator-activated receptor gamma (Homo sapiens, UniProt P37231)
T1 sequence (P37231 whole entry): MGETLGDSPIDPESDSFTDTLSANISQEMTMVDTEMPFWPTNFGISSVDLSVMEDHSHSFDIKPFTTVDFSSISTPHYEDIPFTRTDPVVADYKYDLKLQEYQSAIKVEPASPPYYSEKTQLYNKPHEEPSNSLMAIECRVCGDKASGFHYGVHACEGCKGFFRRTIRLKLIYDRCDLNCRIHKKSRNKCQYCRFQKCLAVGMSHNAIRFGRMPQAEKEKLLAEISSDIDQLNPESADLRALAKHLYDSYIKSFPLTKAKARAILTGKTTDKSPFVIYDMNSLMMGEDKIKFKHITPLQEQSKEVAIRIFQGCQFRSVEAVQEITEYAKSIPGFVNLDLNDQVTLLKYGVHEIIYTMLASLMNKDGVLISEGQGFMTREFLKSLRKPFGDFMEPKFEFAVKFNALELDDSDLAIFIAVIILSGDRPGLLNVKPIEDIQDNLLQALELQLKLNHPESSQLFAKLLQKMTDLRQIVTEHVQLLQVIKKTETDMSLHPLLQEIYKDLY
Description: In vitro binding to peroxisome proliferator activated receptor gamma (PPAR gamma) using [3H]-BRL 49653 as radioligand in scintillation proximity assay (SPA)

[2] = target: T1, Peroxisome proliferator-activated receptor gamma; remark: listed apart in the source
Description: Activation of peroxisome proliferator activated receptor gamma measured by induction of 50% of maximum alkaline phosphatase activity, transfection assay in CV-1 cells

[3] = target: T2, Peroxisome proliferator-activated receptor gamma (Homo sapiens) (UniProt P37231); assay: Compound was tested functionally in vitro for inducing 50% of the maximum alkaline phosphatase activity (Transactivation) against Peroxisome proliferator activated receptor gamma using transfection assay in CV-1 cells; IA = Inactive at 10e-4 M; assay type: functional, cell-based
T2 sequence (whole entry): T1 sequence (P37231 whole entry)

Mus musculus [4] = species: Mus musculus; assay: Compound was tested for Antihyperlipidemic activity, activity is expressed as percent reduction of Triglycerides; assay type: functional
Mus musculus [5] = species: Mus musculus; assay: Compound was tested for Antihyperlipidemic activity, activity is expressed as percent increase of body weight
Rattus norvegicus [6] = assay: Compound was tested in vivo for Antihyperglycemic activity in Zucker Diabetic fatty rats, activity is expressed as percent reduction of HbA1C.; assay type: functional
Rattus norvegicus [7] = species: Rattus norvegicus; assay: Compound was tested for Antihyperlipidemic activity in Zucker Diabetic fatty rats, activity is expressed as percent reduction of NEFAs; assay type: functional
[8] = target: T3, Peroxisome proliferator-activated receptor alpha (Mus musculus) (UniProt P23204); assay: Compound was tested functionally in vitro for inducing 50% of the maximum alkaline phosphatase activity (Transactivation) against murine Peroxisome proliferator activated receptor alpha using transfection assay in CV-1 cells; IA = Inactive at 10e-4 M; assay type: functional, cell-based
T3 sequence (whole entry): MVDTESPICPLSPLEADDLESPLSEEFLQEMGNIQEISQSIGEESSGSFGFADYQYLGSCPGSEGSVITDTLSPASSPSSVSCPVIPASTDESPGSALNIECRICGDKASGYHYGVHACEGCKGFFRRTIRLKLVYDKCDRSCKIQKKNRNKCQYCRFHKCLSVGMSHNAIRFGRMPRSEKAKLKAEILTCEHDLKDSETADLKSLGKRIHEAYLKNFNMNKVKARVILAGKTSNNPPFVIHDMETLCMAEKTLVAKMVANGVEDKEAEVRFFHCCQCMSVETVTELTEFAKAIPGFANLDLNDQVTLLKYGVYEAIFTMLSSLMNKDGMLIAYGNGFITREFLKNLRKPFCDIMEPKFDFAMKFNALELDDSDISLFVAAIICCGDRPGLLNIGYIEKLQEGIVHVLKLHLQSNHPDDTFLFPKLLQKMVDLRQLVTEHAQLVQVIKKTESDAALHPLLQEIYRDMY

Mus musculus [9] = species: Mus musculus; assay: Compound was tested for Antihyperlipidemic activity, activity is expressed as percent reduction of NEFAs; assay type: functional
[10] = target: T4, Peroxisome proliferator-activated receptor delta (Homo sapiens) (UniProt Q03181); settings: CV-1; 10e-4 M
T4 sequence (whole entry): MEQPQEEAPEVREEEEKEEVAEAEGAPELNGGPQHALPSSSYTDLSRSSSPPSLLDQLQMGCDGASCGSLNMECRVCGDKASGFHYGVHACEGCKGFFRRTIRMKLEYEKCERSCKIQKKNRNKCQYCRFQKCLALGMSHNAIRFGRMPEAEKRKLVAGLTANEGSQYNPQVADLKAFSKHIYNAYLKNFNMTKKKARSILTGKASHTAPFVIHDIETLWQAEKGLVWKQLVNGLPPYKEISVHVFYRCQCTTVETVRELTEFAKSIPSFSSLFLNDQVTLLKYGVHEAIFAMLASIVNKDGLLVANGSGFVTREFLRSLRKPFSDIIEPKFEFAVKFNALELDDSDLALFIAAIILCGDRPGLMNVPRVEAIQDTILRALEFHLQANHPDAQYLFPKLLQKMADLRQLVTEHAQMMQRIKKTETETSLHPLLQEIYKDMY
Description: Compound was tested functionally in vitro for inducing 50% of the maximum alkaline phosphatase activity (Transactivation) against human Peroxisome proliferator activated receptor delta using transfection assay in CV-1 cells; IA = Inactive at 10e-4 M

Rattus norvegicus [11] = assay: Compound was tested in vivo for Antihyperglycemic activity in Zucker Diabetic fatty rats, activity is expressed as percent reduction of plasma glucose; assay type: functional
Mus musculus [12] = assay: Compound was tested in vivo for Antihyperglycemic activity in mice, activity is expressed as percent reduction of plasma glucose.; assay type: functional
Rattus norvegicus [13] = species: Rattus norvegicus; assay: Compound was tested for Antihyperlipidemic activity in Zucker Diabetic fatty rats, activity is expressed as percent reduction of Triglycerides; assay type: functional
[14] = target: T5, Peroxisome proliferator-activated receptor delta (Mus musculus) (UniProt P35396); assay: Compound was tested functionally in vitro for inducing 50% of the maximum alkaline phosphatase activity (Transactivation) against murine Peroxisome proliferator activated receptor delta using transfection assay in CV-1 cells; IA = Inactive at 10e-4 M; assay type: functional, cell-based
T5 sequence (whole entry): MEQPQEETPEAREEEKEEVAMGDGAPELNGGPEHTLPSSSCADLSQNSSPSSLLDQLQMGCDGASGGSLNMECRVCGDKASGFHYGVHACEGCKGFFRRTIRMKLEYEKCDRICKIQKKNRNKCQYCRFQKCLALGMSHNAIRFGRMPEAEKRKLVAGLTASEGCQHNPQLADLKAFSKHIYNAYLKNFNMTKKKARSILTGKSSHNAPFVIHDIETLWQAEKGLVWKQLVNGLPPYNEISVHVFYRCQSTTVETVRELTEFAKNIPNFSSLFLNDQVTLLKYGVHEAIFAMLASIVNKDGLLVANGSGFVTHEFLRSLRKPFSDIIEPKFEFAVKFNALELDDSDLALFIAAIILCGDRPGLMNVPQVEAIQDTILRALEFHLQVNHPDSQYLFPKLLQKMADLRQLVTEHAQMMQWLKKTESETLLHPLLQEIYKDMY

[15] = target: T2, Peroxisome proliferator-activated receptor gamma (Homo sapiens); settings: 10e-4 M
Description: Compound was tested for its ability to promote differentiation of C3H10T1/2 stem cells to adipocytes using lipogenesis assay mediated through activation of Peroxisome proliferator activated receptor gamma; IA = Inactive at 10e-4 M

| Structure (SMILES) | Ki [1] [nM] | EC50 [2] [nM] | also measured |
| --- | --- | --- | --- |
| Cc1oc(-c2ccccc2)nc1CCOc1ccc(CC2SC(=O)NC2=O)cc1 (stereo not given) | 4.27 | 3.16 |  |
| O=C(O)[C@H](Cc1ccc(OCc2ccccc2)cc1)/N=C1\CCCC\C1=C(\O)c1ccccc1 | 794 | 10200 |  |
| CC1(COc2ccc(C[C@H](Nc3ccccc3C(=O)c3ccccc3)C(=O)O)cc2)CCCCC1 | 51.3 | 617 |  |
| CN(CCOc1ccc(CC(Nc2ccccc2S(=O)(=O)c2ccccc2)C(=O)O)cc1)c1nc2ccccc2o1 (stereo not given) | 123 | 1820 |  |
| COC(=O)[C@H](Cc1ccc(OCc2ccccc2)cc1)/N=C(C)/C=C(\O)c1ccccc1 | 759 | 692 |  |
| O=C(c1ccccc1)c1cccc(N[C@@H](Cc2ccc(OCc3ccccc3)cc2)C(=O)O)c1 | > 3160 |  | Log EC50 [3]: inactive |
| CC(/C=C(\O)c1ccccc1)=N\[C@@H](Cc1ccc(OCc2ccccc2)cc1)C(=O)O (stereo in doubt; 2) | 11.7 | 229 |  |
| O=C(c1ccccc1)c1ccccc1N[C@@H](Cc1ccc(OCc2ccccc2)cc1)C(=O)O | 162 | 16600 |  |
| O=C(O)[C@H](Cc1ccc(OCc2ccccc2)cc1)Nc1ccccc1Cc1ccccc1 | > 3160 |  | Log EC50 [3]: inactive |
| CCc1ccc(CCOc2ccc(C[C@H](Nc3ccccc3C(=O)c3ccccc3)C(=O)O)cc2)nc1 | 6.46 | 50.1 |  |
| COC(=O)[C@H](Cc1ccc(OCc2ccccc2)cc1)/N=C(\C)C1=C(O)c2ccccc2CC1 | > 3160 |  | Log EC50 [3]: inactive |
| CN(CCOc1ccc(CC(Nc2cccc3c2C(=O)c2ccccc2-3)C(=O)O)cc1)c1nc2ccccc2o1 (stereo not given) | 85.1 | 490 |  |
| CN(CCOc1ccc(CC(Nc2ccccc2Oc2ccccc2)C(=O)O)cc1)c1nc2ccccc2o1 (stereo not given) | 3.72 | 107 |  |
| N[C@@H](Cc1ccc(OCc2ccccc2)cc1)C(=O)O | > 3160 | 2510 |  |
| CC(/C=C(\O)c1ccccc1)=N\[C@@H](Cc1ccc(OCc2ccccc2)cc1)C(=O)O (stereo in doubt) | > 3160 | 21900 |  |
| CN(CCOc1ccc(CC(Oc2ccccc2C(=O)c2ccccc2)C(=O)O)cc1)c1nc2ccccc2o1 (stereo not given) | 32.4 | 933 |  |
| O=C(c1ccccc1)c1ccc(N[C@@H](Cc2ccc(OCc3ccccc3)cc2)C(=O)O)cc1 | 1260 |  | Log EC50 [3]: inactive |
| COC(=O)[C@H](Cc1ccc(OCc2ccccc2)cc1)Nc1ccccc1C(=O)Nc1ccccc1 | > 3160 |  | Log EC50 [3]: inactive |
| CN(CCOc1ccc(CC(Nc2ccccc2/C(=N/N)c2ccccc2)C(=O)O)cc1)c1ccccn1 (stereo not given) | 162 | 851 |  |
| CN(CCOc1ccc(CC(Nc2ccccc2C(=O)Cc2ccccc2)C(=O)O)cc1)c1nc2ccccc2o1 (stereo not given) | 3.31 | 28.8 |  |
| COC(=O)[C@H](Cc1ccc(OCc2ccccc2)cc1)Nc1ccccc1C(=O)OCc1ccccc1 | > 3160 |  | Log EC50 [3]: inactive |
| CN(CCOc1ccc(CC(Sc2ccccc2C(=O)c2ccccc2)C(=O)O)cc1)c1nc2ccccc2o1 (stereo not given) | 33.1 | 1380 |  |
| Cc1oc(-c2ccccc2)nc1CCOc1ccc(C[C@H](Nc2ccccc2C(=O)c2ccccc2)C(=O)O)cc1 [FARGLITAZAR] |  |  | Reduction (Mus musculus [4]): 54%; body weight increase % (Mus musculus [5]): 17%; Reduction (Rattus norvegicus [6]): 33%; Reduction (Rattus norvegicus [7]): 75%; Log EC50 [8]: inactive; Reduction (Mus musculus [9]): 56%; Log EC50 [10]: inactive; Reduction (Rattus norvegicus [11]): 65%; Reduction (Mus musculus [12]): 65%; Reduction (Rattus norvegicus [13]): 77%; Log EC50 [14]: inactive |
| CC(/C=C(\O)c1ccccc1)=N\[C@@H](Cc1ccc(OCc2ccccc2)cc1)C(N)=O | 1320 | 490 |  |
| C/C(O)=C/C(C)=N/[C@@H](Cc1ccc(OCc2ccccc2)cc1)C(=O)O | 1950 |  | Log EC50 [3]: inactive |
| Cc1c(C)c2c(c(C)c1O)CCC(C)(COc1ccc(C[C@H](Nc3ccccc3C(=O)c3ccccc3)C(=O)O)cc1)O2 (stereo not given in full) | 5.25 | 9.12 |  |
| CN(CCOc1ccc(CC(Nc2ccccc2C(O)c2ccccc2)C(=O)O)cc1)c1ccccn1 (stereo not given) |  | 447 |  |
| CN(CCOc1ccc(CC(Nc2cccc3c2C(=O)c2ccccc2C3=O)C(=O)O)cc1)c1nc2ccccc2o1 (stereo not given) | 5.13 | 5.01 | Log EC50 [15]: inactive |
